Laboratory results from patent US20230391842A1, “RETRO-INVERSO PEPTIDES” (Herantis Pharma OYJ, priority 2019, published 2023).
Positions of bridges follow the written chain, without caps; N, C: chain ends. Non-standard residues stand in square brackets, D forms with d. Residues, ends and D or L forms follow the SMILES beside them.

What was measured:
[1] = tested on: dopaminergic TH-positive neurons injured with MPP+; assay: Neuroprotective effect on dopaminergic TH-positive neurons injured with MPP+ (primary mesencephalic culture); format: cell-based, rat; conditions: MPP+ 4 μM, 48 h; stated for 'most cases'
Experimental: Neuroprotective effects of compounds 1-20 (SEQ ID NO:s 1-20, parent and retro-inverso) were tested in an in vitro model in which primary cultures of rat embryonic mesencephalic neurons were stressed with MPP+, the active metabolite of neurotoxin 1-methyl-4-phenyl-1,2,3,6-tetrahydropyridine (MPTP). MPP+ kills dopaminergic (TH-positive) neurons via a variety of toxic mechanisms, including mitochondrial dysfunction, generation of peroxynitrite, oxidative stress, ER stress and induction of apoptosis.
Rat dopaminergic neurons were cultured as described by Visanji et al., 2008. Briefly, the midbrains obtained from 15-day-old rat embryos (Janvier, France) were dissected, and the ventral portion of the mesencephalic flexure, a region of the developing brain rich in dopaminergic neurons, was used for the cell preparations. The midbrain cells were dissociated by trypsinization for 20 min at 37° C. […] The reaction was stopped by adding Dulbecco's modified Eagle's medium (DMEM) containing DNAase I grade II (0.5 mg/mL) and 10% of fetal calf serum (FCS). Cells were then mechanically dissociated by 3 passages through a 10 ml pipette. Cells were then centrifuged at 180×g for 10 min at +4° C. on a layer of BSA (3.5%) in L15 medium. The cell pellets was re-suspended in a defined culture serum-free medium consisting of Neurobasal (Invitrogen) supplemented with B27 (2%), L-glutamine (2 mM) and 2% of PS solution and 10 ng/ml of Brain-derived neurotrophic factor (BDNF) and 1 ng/mL of Glial-Derived Neurotrophic Factor (GDNF). […] The cells were seeded at a density of 40 000 cells/well in 96 well-plates (pre-coated with poly-L-lysine) and maintained in a humidified incubator at 37° C. in 5% CO2/95% air atmosphere. Half of the medium was changed every 2 days with fresh medium. On 96-wells plates, only 60 wells are used. To avoid any edge effect, the first and last lines and columns were not be used for culture and were filled with sterile water.
On day 6 of culture, CDNF or the compounds 1-20 (SEQ ID NO:s 1-20, parent and retro-inverso), were dissolved in culture medium and then pre-incubated with mesencephalic neurons for 4 hours before the MPP+ application. Four hours after the preincubation of the compounds, MPP+ was added to a final concentration of 4 μM, diluted in control medium still in presence of compounds for 48 h.
48 hours after intoxication, the cells were fixed by a solution of 4% paraformaldehyde in PBS, pH 7.3 for 20 min at room temperature. The cells were washed twice in PBS, and then permeabilized and non-specific sites were blocked with a solution of PBS containing 0.1% of saponin and 1% FCS for 15 min at room temperature. Next, the cells were incubated with (a) a monoclonal antibody anti-Tyrosine Hydroxylase (TH) produced in mouse at dilution of 1:1 0000 and with (b) a polyclonal antibody anti-alpha-synuclein (aSyn) antibody produced in rabbit at dilution of 1:400 in PBS containing 1% FCS, 0.1% saponin, for 2 h at room temperature.
48 hours after intoxication, the cell culture supernatant was removed, and the cells fixed by a solution of 4% paraformaldehyde in PBS, pH 7.3 for 20 min at room temperature. The cells were washed twice in PBS, and then permeabilized and non-specific sites were blocked with a solution of PBS containing 0.1% of saponin and 1% FCS for 15 min at room temperature. Then, the cells were incubated with a) a monoclonal Anti-Tyrosine Hydroxylase (TH) antibody produced in mouse at dilution of 1:10000 in PBS containing 1% FCS, 0.1% saponin, for 2 hours at room temperature, and b) a polyclonal anti-postsynaptic density protein-95 (PSD-95) antibody produced in rabbit at dilution of 1:200 in PBS containing 1% FCS, 0.1% saponin, for 2 h at room temperature. This antibody stains specifically synapses.
For each condition, pictures representing the whole well area were automatically acquired using ImageXpress (Molecular device) at 10× (20 pictures, for TH and a-syn) or at 40× magnification (60 pictures, for TH and PSD-95). […]

[2] = tested on: unfolded protein response (UPR) pathway signaling in TH-positive neurons injured with MPP+; assay: Dependence of neuroprotection in MPP+-injured mesencephalic neurons on UPR signaling (PERK / IRE1alpha inhibitors); format: cell-based, rat
Experimental: CDNF and MANF protect cells from ER stress-induced cell dysfunction or cell death, such as apoptosis by modulating cellular responses to ER stress. […] Binding of compounds to GRP78-NBD was assessed in a cell-free binding assay using purified recombinant GRP78-NBD and synthesized peptides. As GRP78 also serves as a critical ligand of the three receptors of the unfolded protein response (UPR) pathway, IRE1[…], PERK and ATF6, the dependency of the compounds' neuroprotective effects on UPR signaling was also tested.
The neuronal cell culture, MPP+ intoxication, immunostaining and analysis of neuroprotective effects of compounds were performed as in Example 1. PERK inhibitor GSK2606414 (2 µM, Sigma) or IRE1alpha inhibitor KIRA6 (2 µM, Sigma) were added to is the culture 1 h before addition of the test compounds.

[3] = In vitro metabolic stability in rat plasma; format: in vitro ADME; conditions: 1 μM, 37° C., up to 120 min
Experimental: Metabolic stability of the retro-inverso and native control peptides was studied using rat plasma over the time period of 120 min, with initial test concentration of 1 μM. Samples were analysed using LC/QE-orbitrap-MS. Calculated half-life is based on compound disappearance in rat plasma.
The incubation was terminated by acetonitrile. […] Stock solutions was prepared using 50% DMSO, and the compounds were spiked 1/100 to incubation to have final DMSO content of 0.5%. […] For analysis of compounds 13-14 and 19-20 stock solutions were prepared with PBS, and samples were analyzed by UHPLC-ToF mass spectrometry. Enalapril 1 μM was used as a disappearance rate control.

[4] = In vivo pharmacokinetics after intravenous administration to rats; conditions: rat, 5 mg/kg intravenous bolus injection, male Sprague-Dawley rats, plasma
Experimental: Test compounds were intravenously (i.v.) administered to male Spraque-Dawley rats (about six weeks old, n=3 per compound) at 5 mg/kg. Blood samples were collected from jugular vein through implanted in-dwelling catheters (250 μl blood) into labelled polypropylene tubes containing anticoagulant (heparin) at 2 min, 5 min, 15 min, 30 min, 1 h, 2 h and 4 h after compound administration and held on wet ice for a maximum of 30 minutes. The blood samples were centrifuged for plasma separation (4° C., 21100 G, 5 min). Tolbutamide 500 ng/ml with 10% TFA in acetonitrile or in MeCN was used as an internal standard solution. The standard samples were prepared into rat plasma by spiking the matrix into concentrations 2-10 000 ng/ml of the analyte, respectively, and otherwise treated as the samples. To 50 μl aliquots of sample plasma was added 200 μl of internal standard. Samples were mixed (150 rpm, 15 min) and centrifugated (3000 rpm, 15 min). The analytical method was optimized for reaction monitoring chromatographic (peak shape & retention) shifts and mass spectrometric properties (ionization efficiency, MS/MS detection). Supernatants were is analyzed by UHPLC-TOF mass spectrometry using electrospray ionization. […]

[5] = biological target: nucleotide-binding domain of GRP78 (GRP78-NBD); assay: Binding to GRP78-NBD Kd (μM)
Source text: Table printed on a drawing sheet, FIG. 5B
Head of the field: Binding to GRP78-NBD Kd (μM)
GRP78-NBD is shown in a to translucent surface model along with its cartoon trace. The Cys-Cys bond in compound 14 (SEQ ID NO: 14) is shown in sticks.
The binding affinities are obtained by microscale thermophoresis-based cell free assay.
GSK2606414 was used to inhibit PERK signaling and KIRA6 to inhibit IRE1alpha signaling. * p<0.05, ** p<0.01, *** p<0.001, **** p<0.0001 one-way ANOVA test with post-hoc Fisher's LSD test for pairwise comparison vs MPP+ negative control. #p<0.05, ##p<0.01, ###p<0.001, ####p<0.0001 one-way ANOVA test with post-hoc Fisher's LSD test for pairwise comparison between effect of compound alone and its combination with UPR signal inhibitor.
Where the first naming reader finds the target: head: Binding to GRP78-NBD Kd (μM)

[6] = tested on: rat hepatocytes; assay: In vitro metabolic stability in rat hepatocytes; conditions: 1 μM, 37° C., 0-60 min
[7] = In vitro metabolic stability in human plasma; format: in vitro ADME; conditions: 1 μM, 37° C., up to 120 min
Experimental: Metabolic stability was studied using human plasma over the time period of 120 min, with initial test concentration of 1 μM. Samples were analysed using LC/QE-orbitrap-MS. Calculated half-life is based on compound disappearance in human plasma.
The incubation was terminated by acetonitrile. […] Propanthelin bromide 1 uM was used as a disappearance rate control. […] The in vitro half-life (t1/2) of is study compound is defined as: t1/2=ln2/k.

[8] = tested on: human hepatocytes; assay: In vitro metabolic stability in human hepatocytes; conditions: 1 μM, 37° C., 0-60 min

stability in human plasma as compared to parent compound [7]	stability in human hepatocytes as compared to parent compound [8]	Structure (SMILES)	potency of retro-inverso peptides relative to their parent compounds and to full-length CDNF protein [1]	neuroprotective effect in the presence of PERK inhibitor GSK2606414 ([2]; GSK2606414 added 1 h before test compound)	neuroprotective effect in the presence of IRE1alpha inhibitor KIRA6 ([2]; KIRA6 added 1 h before test compound)	stability in rat plasma as compared to parent compound [3]	AUC(0-inf) [4] [ng·h/mL]	MRT [4] [min]	Vd [4] [L/kg]	half-life [4] [min]	clearance ([4]; read-out: CI) [mL/min/kg]	Kd [5] [µM]	stability in rat hepatocytes as compared to parent compound [6]
–	–	C[C@H](O)[C@@H](NC(=O)[C@H]1CSSC[C@@H](NC(=O)[C@@H](C)NC(=O)[C@H](N)CCC(=O)O)C(=O)NCC(=O)N[C@H](CCCCN)C(=O)N1)C(=O)N[C@H](CCC(=O)O)C(=O)O [Compound 20, EACGKCTE]	comparable	abolished	abolished	significantly improved stability	18400	23.9	0.11	20.5	4.57	3.4	significantly improved stability
improved stability	significantly improved stability	C[C@H](O)[C@@H](NC(=O)[C@H]1CSSC[C@@H](NC(=O)[C@@H](C)NC(=O)[C@@H](CCC(=O)O)NC(=O)[C@@H](CCCCN)NC(=O)[C@H](N)CO)C(=O)NCC(=O)N[C@H](CCCCN)C(=O)N1)C(=O)N[C@H](CCC(=O)O)C(=O)NCC(=O)O [Compound 8, SKEACGKCTEG] (H-[dS][dK][dE][dA][dC]G[dK][dC][dT][dE]G-OH; disulfide 5-8; N-terminus and C-terminus assumed)	–	–	–	significantly improved stability	–	–	–	–	–	–	significantly improved stability
